Test results published in PMC9931709, “Uphill energy transfer mechanism for photosynthesis in an Antarctic alga” (Nature Communications, 2023).

What was measured:
[1] = biological target: T1, Pc-frLHC (Prasiola crispa far-red light-harvesting Chl-binding protein complex) (Prasiola crispa, UniProt C0HLU5); experiment: cryo-EM structure, […] A; biochemical pigment analysis; conditions: native pigment, pH 6.5
T1 construct: native complex purified from thylakoids of thalli harvested in Antarctica; beta-DDM; homo-undecamer, subunit about 29 kDa
T1 sequence (C0HLU5 45-307, one chain of several): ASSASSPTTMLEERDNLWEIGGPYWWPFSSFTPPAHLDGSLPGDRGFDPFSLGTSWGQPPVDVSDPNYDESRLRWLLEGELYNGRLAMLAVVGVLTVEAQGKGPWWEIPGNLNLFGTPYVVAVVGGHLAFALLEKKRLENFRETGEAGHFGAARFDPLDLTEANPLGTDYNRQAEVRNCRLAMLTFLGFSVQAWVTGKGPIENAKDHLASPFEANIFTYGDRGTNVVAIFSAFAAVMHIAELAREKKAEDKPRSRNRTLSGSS

[2] = biological target: Prasiola crispa far-red light-harvesting Chl-binding protein complex (Pc-frLHC) subunit (Prasiola crispa); experiment: cryo-EM structure; single-particle cryo-EM, C11 symmetry imposed; 6 mg protein/ml in 25 mM MES pH 6.5, 0.015% β-DDM, 0.5 M betaine; 3.13 Å

With `CC(/C=C/C=C(C)/C=C/[C@@]12O[C@]1(C)C[C@@H](O)CC2(C)C)=C\C=C\C=C(C)\C=C\C=C(C)\C=C\[C@@]12O[C@]1(C)C[C@@H](O)CC2(C)C` [violaxanthin] the “cryo-EM structure, 3.13 A; biochemical pigment analysis” value ([1]; L1 site) was “Pc-frLHC binds only two carotenoids: violaxanthin (vio) and loroxanthin (loro)”.

With `CC1=C[C@H](O)CC(C)(C)[C@H]1/C=C/C(C)=C/C=C/C(C)=C/C=C/C=C(C)/C=C/C=C(/C=C/C1=C(C)C[C@@H](O)CC1(C)C)CO` [loroxanthin] the “cryo-EM structure, 3.13 A; biochemical pigment analysis” value ([1]; L2 site) was “Pc-frLHC binds only two carotenoids: violaxanthin (vio) and loroxanthin (loro)”.

“Prasiola crispa far-red light-harvesting Chl-binding protein complex (Pc-frLHC) subunit (natural protein)” gave a stoichiometry N [2] of 11.
